Data from patent US20050228016A1, “TETRAHYDROQUINOLINES FOR MODULATING THE EXPRESSION OF EXOGENOUS GENES VIA AN ECDYSONE RECEPTOR COMPLEX” (priority 2002, published 2005).

Legend:
Gal4DBD/AaEcR (DEF) = molecular target: T1, Gal4DBD/AaEcR (DEF) (Aedes aegypti, UniProt P49880); experiment: cell-based; assay type: cell-based; settings: 33 μM; 3T3 cells; 48 h; average of two wells
T1 construct: The wildtype D, E, and F domains from mosquito Aedes aegypti EcR; expressed in transfected cells; host or cells: 3T3 cells
T1 sequence (P28704 286-520 A311G/G315S/G445S/I449V): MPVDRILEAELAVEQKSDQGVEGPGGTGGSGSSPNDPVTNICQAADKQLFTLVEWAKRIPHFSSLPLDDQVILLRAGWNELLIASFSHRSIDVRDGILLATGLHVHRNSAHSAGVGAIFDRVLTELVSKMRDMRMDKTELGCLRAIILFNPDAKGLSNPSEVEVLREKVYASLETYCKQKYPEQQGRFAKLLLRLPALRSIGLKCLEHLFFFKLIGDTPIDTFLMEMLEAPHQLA
T1 sequence (P49880 405-776): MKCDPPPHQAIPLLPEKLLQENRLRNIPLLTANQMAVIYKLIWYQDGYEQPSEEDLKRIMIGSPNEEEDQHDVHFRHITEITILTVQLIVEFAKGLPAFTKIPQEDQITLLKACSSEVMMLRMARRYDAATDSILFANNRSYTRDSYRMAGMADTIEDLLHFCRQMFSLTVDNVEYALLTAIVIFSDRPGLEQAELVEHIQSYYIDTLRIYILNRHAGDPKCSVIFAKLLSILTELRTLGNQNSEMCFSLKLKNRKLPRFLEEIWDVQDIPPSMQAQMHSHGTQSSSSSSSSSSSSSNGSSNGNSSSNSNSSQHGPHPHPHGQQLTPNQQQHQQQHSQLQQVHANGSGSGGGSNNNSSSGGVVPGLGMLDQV
How it was run: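 Single-dose ligand testing at 33 μM, applied in serum medium after 4 h transfection. Host was 3T3 cells carrying Gal4DBD/AaEcR (DEF) plus a 5× GAL4 RE-driven firefly luciferase reporter (pFRLuc).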

[1] = molecular target: T2, Bombyx mori EcR (VP16-BmEcR, CVBE) (Bombyx mori, UniProt P49881); experiment: Z3 assay (HEK-293 clone Z3 with CVBE and 6x EcRE LacZ, β-galactosidase reporter); assay type: cell-based; settings: 48 h, average of two wells
T2 construct: expressed in transfected cells
T2 sequence (P49881 86-606): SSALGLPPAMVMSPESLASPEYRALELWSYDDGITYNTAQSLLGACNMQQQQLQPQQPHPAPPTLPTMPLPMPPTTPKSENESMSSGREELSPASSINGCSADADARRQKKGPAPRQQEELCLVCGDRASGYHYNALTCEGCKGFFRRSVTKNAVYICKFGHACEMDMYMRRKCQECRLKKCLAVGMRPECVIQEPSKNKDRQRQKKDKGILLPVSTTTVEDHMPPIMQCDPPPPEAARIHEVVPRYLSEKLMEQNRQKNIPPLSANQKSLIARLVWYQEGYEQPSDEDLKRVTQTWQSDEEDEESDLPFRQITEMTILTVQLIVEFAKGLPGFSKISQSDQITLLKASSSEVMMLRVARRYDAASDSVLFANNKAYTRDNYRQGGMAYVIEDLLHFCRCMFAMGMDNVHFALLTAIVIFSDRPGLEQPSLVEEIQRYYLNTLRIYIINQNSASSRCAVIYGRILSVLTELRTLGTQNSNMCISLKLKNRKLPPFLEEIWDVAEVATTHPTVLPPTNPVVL
Source text: Dr. F. Gage provided a population of stably transformed cells containing CVBE and 6× EcRE as described in (Suhr et. al. 1998). Human 293 kidney cells, also referred to as HEK-293 cells, were sequentially infected with retroviral vectors encoding first the switch construct CVBE, and subsequently the reporter construct 6× EcRE Lac Z. The switch construct contained the coding sequence for amino acids 26-546 from Bombyx nori EcR (BE) (Iatrou) inserted in frame and downstream of the VP16 transactivation domain (VBE). A synthetic ATG start codon was placed under the control of cytomegalovirus (CVBE) immediate early promoter and flanked by long terminal repeats (LTR). The reporter-construct contained six copies of the ecdysone response element (EcRE) binding site placed upstream of LacZ and flanked on both sides with LTR sequences (6× EcRE).
Dilution cloning was used to isolate individual clones. Clones were selected using 450 μg/ml G418 and 100 ng/ml puromycin. Individual clones were evaluated based on their response in the presence and absence of test ligands.
Human 293 kidney cells stably transformed with CVBE and 6× EcRE lack were maintained in Minimum Essential Medium (Mediates, 10-010-CV) containing 10%.FBS (Life Technologies, 26140-087),[…] G418 (Mediates, 30-234-CR), and […] (Sigma, P-7255), at 37° C. in an atmosphere containing 5% CO2 and were subculture when they reached 75% confluence.
Z3 cells were seeded into 96-well tissue culture plates at a concentration of 2.5×10^3 cells per well and incubated at 37° C. in 5% CO2 for twenty-four hours. Stock solutions of ligands were prepared in DMSO. Ligand stock solutions were diluted 100.fold in media and 50 μL of this diluted ligand solution (33 μM) was added to cells.
Reporter gene expression was evaluated 48 hours after treatment of cells, β-galactosidase activity was measured using Gal Screen™ bioluminescent reporter gene assay system from Tropix (GSY1000).
Flanking both constructs are long terminal repeats, G418 and puromycin are selectable markers, CMV is the cytomegalovirus promoter, VBE is coding sequence for amino acids 26-546 from Bombyx mori EcR inserted downstream of the VP16 transactivation domain, 6× EcRE is six copies of the ecdysone response element, lacZ encodes for the reporter enzyme β-galactosidase.

**Q.** What does the source list for `CC1CC(Nc2ccccc2)c2ccccc2N1C(=O)c1ccnc(Cl)c1` (stereo not drawn) [Compound I-106]?
**A.** Fold Induction Average, AA_3T3V1 Assay 33 μM (Gal4DBD/AaEcR (DEF)): 1053 fold; Fold Induction Average, Z3V1 Assay 33 μM [1]: 83 fold

**Q.** How did the “Fold Induction Average, AA_3T3V1 Assay 33 μM” value (Gal4DBD/AaEcR (DEF)) turn out when `CCc1c(OC)cccc1C(=O)N1c2ccccc2C(Nc2ccccc2)CC1C` (stereo not drawn) [Compound I-107] was run?
**A.** The value was 636 fold.

**Q.** And the “Fold Induction Average, Z3V1 Assay 33 μM” value [1]?
**A.** The value was 6 fold.

**Q.** Which “Fold Induction Average, AA_3T3V1 Assay 33 μM” value (Gal4DBD/AaEcR (DEF)) does the source give for `Cc1ccc(NC2CC(C)N(C(=O)c3ccno3)c3ccc(C)cc32)cc1` (stereo not drawn) [Compound I-109] here?
**A.** The value was 33 fold.

**Q.** And the “Fold Induction Average, Z3V1 Assay 33 μM” value [1]?
**A.** Its value is 1 fold.

**Q.** Which results are given for `Cc1ccc(NC2CC(C)N(C(=O)c3ccc(Cl)c(F)c3)c3ccc(C)cc32)cc1` (stereo not drawn) [Compound I-110]?
**A.** Fold Induction Average, AA_3T3V1 Assay 33 μM (Gal4DBD/AaEcR (DEF)): 782 fold; Fold Induction Average, Z3V1 Assay 33 μM [1]: 2 fold

**Q.** With `Cc1ccc(NC2CC(C)N(C(=O)c3ccnc(Cl)c3)c3ccc(C)cc32)cc1` (stereo not drawn) [Compound I-111] as the compound, how does the “Fold Induction Average, AA_3T3V1 Assay 33 μM” value (Gal4DBD/AaEcR (DEF)) read?
**A.** Its value is 527 fold.

**Q.** What about the “Fold Induction Average, Z3V1 Assay 33 μM” value [1] of the same compound?
**A.** Its value is 16 fold.

**Q.** How did the “Fold Induction Average, AA_3T3V1 Assay 33 μM” value (Gal4DBD/AaEcR (DEF)) turn out when `CCCC(=O)N1c2ccccc2C(N(C(=O)c2ccccc2)c2ccc(F)cc2)CC1C` (stereo not drawn) [Compound I-126] was run?
**A.** The value was 1 fold.

**Q.** What about the “Fold Induction Average, Z3V1 Assay 33 μM” value [1] of the same compound?
**A.** Its value is 1 fold.

**Q.** What does the source list for `COc1cccc(NC2CC(C)N(C(=O)c3ccccc3)c3ccccc32)c1` (stereo not drawn) [Compound I-137]?
**A.** Fold Induction Average, AA_3T3V1 Assay 33 μM (Gal4DBD/AaEcR (DEF)): 64 fold; Fold Induction Average, Z3V1 Assay 33 μM [1]: 1 fold

**Q.** Which results are given for `COc1cccc(C(=O)N(c2ccccc2)C2CC(C)N(C(C)=O)c3ccccc32)c1` (stereo not drawn) [Compound I-142]?
**A.** Fold Induction Average, AA_3T3V1 Assay 33 μM (Gal4DBD/AaEcR (DEF)): 1 fold; Fold Induction Average, Z3V1 Assay 33 μM [1]: 1 fold

**Q.** Which “Fold Induction Average, AA_3T3V1 Assay 33 μM” value (Gal4DBD/AaEcR (DEF)) does the source give for `Cc1ccc(C(=O)N2c3ccccc3C(N(C(=O)c3ccc(F)cc3)c3ccccc3)CC2C)cc1` (stereo not drawn) [Compound I-143] here?
**A.** Its value is 27 fold.

**Q.** And the “Fold Induction Average, Z3V1 Assay 33 μM” value [1]?
**A.** The value was 1 fold.

**Q.** Which “Fold Induction Average, AA_3T3V1 Assay 33 μM” value (Gal4DBD/AaEcR (DEF)) does the source give for `CC1CC(Nc2ccccc2)c2ccccc2N1C(=O)COc1ccc(F)cc1` (stereo not drawn) [Compound I-159] here?
**A.** The value was 12 fold.

**Q.** And the “Fold Induction Average, Z3V1 Assay 33 μM” value [1]?
**A.** Its value is 1 fold.

**Q.** With `CC1CC(Nc2ccccc2)c2ccccc2N1C(=O)c1ccc(Cl)c(Cl)c1` (stereo not drawn) [Compound I-165] as the compound, how does the “Fold Induction Average, AA_3T3V1 Assay 33 μM” value (Gal4DBD/AaEcR (DEF)) read?
**A.** Its value is 1 fold.

**Q.** And the “Fold Induction Average, Z3V1 Assay 33 μM” value [1]?
**A.** The value was 1 fold.

**Q.** How did the “Fold Induction Average, AA_3T3V1 Assay 33 μM” value (Gal4DBD/AaEcR (DEF)) turn out when `CC1CC(Nc2ccccc2)c2ccccc2N1C(=O)c1ccc(I)cc1` (stereo not drawn) [Compound I-168] was run?
**A.** The value was 401 fold.

**Q.** And the “Fold Induction Average, Z3V1 Assay 33 μM” value [1]?
**A.** Its value is 3 fold.

**Q.** What does the source list for `CC1CC(Nc2ccccc2)c2ccccc2N1C(=O)CCC1CCCCC1` (stereo not drawn) [Compound I-170]?
**A.** Fold Induction Average, AA_3T3V1 Assay 33 μM (Gal4DBD/AaEcR (DEF)): 2 fold; Fold Induction Average, Z3V1 Assay 33 μM [1]: 1 fold

**Q.** How did the “Fold Induction Average, AA_3T3V1 Assay 33 μM” value (Gal4DBD/AaEcR (DEF)) turn out when `CCOC(=O)C(=O)N1c2ccccc2C(Nc2ccccc2)CC1C` (stereo not drawn) [Compound I-171] was run?
**A.** Its value is 1 fold.

**Q.** And the “Fold Induction Average, Z3V1 Assay 33 μM” value [1]?
**A.** Its value is 1 fold.

**Q.** How did the “Fold Induction Average, AA_3T3V1 Assay 33 μM” value (Gal4DBD/AaEcR (DEF)) turn out when `CC1CC(Nc2ccccc2)c2ccccc2N1C(=O)c1ccc(NS(C)(=O)=O)cc1` (stereo not drawn) [Compound I-175] was run?
**A.** Its value is 1 fold.

**Q.** What about the “Fold Induction Average, Z3V1 Assay 33 μM” value [1] of the same compound?
**A.** The value was 5 fold.

**Q.** Which “Fold Induction Average, AA_3T3V1 Assay 33 μM” value (Gal4DBD/AaEcR (DEF)) does the source give for `CC(C)C(=O)N1c2ccccc2C(N(C(=O)c2ccccc2)c2ccc([N+](=O)[O-])cc2)CC1C` (stereo not drawn) [Compound I-178] here?
**A.** The value was 1 fold.

**Q.** What about the “Fold Induction Average, Z3V1 Assay 33 μM” value [1] of the same compound?
**A.** The value was 1 fold.

**Q.** Which “Fold Induction Average, AA_3T3V1 Assay 33 μM” value (Gal4DBD/AaEcR (DEF)) does the source give for `CCC(=O)N1c2ccccc2C(N(C(=O)c2ccc([N+](=O)[O-])cc2)c2ccccc2)CC1C` (stereo not drawn) [Compound I-183] here?
**A.** The value was 1 fold.

**Q.** And the “Fold Induction Average, Z3V1 Assay 33 μM” value [1]?
**A.** The value was 2 fold.

**Q.** For `Cc1ccc(C(=O)N2c3ccc(F)cc3C(N(C(=O)c3ccc(C)c(F)c3)c3ccc(F)cc3)CC2C)cc1F` (stereo not drawn) [Compound I-197], which “Fold Induction Average, AA_3T3V1 Assay 33 μM” value (Gal4DBD/AaEcR (DEF)) is on record?
**A.** Its value is 686 fold.

**Q.** What about the “Fold Induction Average, Z3V1 Assay 33 μM” value [1] of the same compound?
**A.** The value was 1 fold.
